Assay results as given in publication PMC6112376, “Comprehensive Analyses and Prioritization of Tox21 10K Chemicals Affecting Mitochondrial Function by in-Depth Mechanistic Studies” (Environmental Health Perspectives, 2018).
Like-named read-outs stand apart in the source and are kept apart here.

How the values were obtained:
[1] = tested on: hNSC; test: MMP assay in human neural stem cells (hNSC); assay type: cell-based; conditions: Homo sapiens, Neural stem cell, read-out: hNSC IC50 (MMP)
[2] = tested on: mitochondrial respiratory chain complex IV; assay type: biochemical, rat
[3] = tested on: HepG2 cells; conditions: cited from earlier work
[4] = tested on: mitochondrial respiratory chain complex I; assay type: biochemical, rat
[5] = tested on: HeLa cells expressing YFP-Parkin; test: Parkin translocation assay; assay type: cell-based, human
[6] = target: T1, mitochondrial respiratory chain complex II (Rattus norvegicus, UniProt P21913+Q641Z9+Q6PCT8+Q920L2); test: Respiratory chain complex II activity; assay type: biochemical; conditions: tested up to 100μM
T1 construct: Submitochondrial particles were prepared by subjecting the intact rat mitochondria, isolated as described above, to three successive freeze–thaw cycles; from tissue; host or cells: rat liver mitochondria (submitochondrial particles)
T1 sequence (Q920L2 35-656): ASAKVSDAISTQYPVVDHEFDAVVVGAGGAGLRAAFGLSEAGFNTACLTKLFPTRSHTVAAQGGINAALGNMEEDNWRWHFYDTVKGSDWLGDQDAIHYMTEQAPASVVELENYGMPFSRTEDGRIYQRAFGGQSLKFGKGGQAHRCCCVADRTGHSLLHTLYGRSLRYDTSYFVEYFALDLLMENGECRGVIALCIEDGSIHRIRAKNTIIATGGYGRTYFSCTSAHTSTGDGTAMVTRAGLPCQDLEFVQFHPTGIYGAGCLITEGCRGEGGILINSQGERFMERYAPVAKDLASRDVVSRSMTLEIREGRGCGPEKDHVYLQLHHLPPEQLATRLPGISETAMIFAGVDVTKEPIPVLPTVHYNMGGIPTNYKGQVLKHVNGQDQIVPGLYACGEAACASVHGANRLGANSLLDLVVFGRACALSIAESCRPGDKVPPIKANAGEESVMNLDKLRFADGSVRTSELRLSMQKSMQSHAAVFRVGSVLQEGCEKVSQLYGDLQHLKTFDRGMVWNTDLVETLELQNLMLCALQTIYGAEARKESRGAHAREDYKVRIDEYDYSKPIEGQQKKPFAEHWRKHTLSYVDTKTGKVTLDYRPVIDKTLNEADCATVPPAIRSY
T1 sequence (P21913 31-282): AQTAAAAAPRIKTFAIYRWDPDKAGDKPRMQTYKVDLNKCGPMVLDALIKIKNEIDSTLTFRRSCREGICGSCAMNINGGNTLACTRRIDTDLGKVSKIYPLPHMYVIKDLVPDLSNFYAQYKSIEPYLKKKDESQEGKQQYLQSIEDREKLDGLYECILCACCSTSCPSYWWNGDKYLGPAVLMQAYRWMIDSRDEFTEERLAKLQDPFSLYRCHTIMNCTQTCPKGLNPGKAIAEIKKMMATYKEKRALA
T1 sequence (Q641Z9 1-169): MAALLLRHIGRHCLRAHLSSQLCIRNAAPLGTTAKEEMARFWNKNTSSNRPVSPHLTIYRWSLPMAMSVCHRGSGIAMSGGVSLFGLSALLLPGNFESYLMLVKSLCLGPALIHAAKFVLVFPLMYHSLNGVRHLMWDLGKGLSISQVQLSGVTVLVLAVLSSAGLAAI
T1 sequence (Q6PCT8 57-159): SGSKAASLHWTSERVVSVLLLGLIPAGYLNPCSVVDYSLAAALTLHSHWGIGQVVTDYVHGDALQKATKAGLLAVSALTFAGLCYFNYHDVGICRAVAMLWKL

[7] = tested on: p53 (p53-bla HCT-116 cells); test: p53 β-lactamase reporter gene assay; assay type: cell-based, human; conditions: 16 h incubation; mean±SD of three experiments
[8] = tested on: HepG2 cells; test: ROS-Glo hydrogen peroxide (ROS) assay; assay type: cell-based, human
[9] = tested on: rat primary hepatocytes; test: MMP assay in rat primary hepatocytes; conditions: for IC50: Rattus norvegicus, Hepatocyte
[10] = tested on: mitochondrial respiratory chain complex III; assay type: biochemical, rat
[11] = tested on: isolated rat liver mitochondria; test: Oxygen consumption, Clark-type oxygen electrode; assay type: biochemical
[12] = tested on: HepG2 cells; test: cells; conditions: Homo sapiens; for Emax: HepG2, read-out: MMP assays efficacy (%) HepG2
[13] = tested on: Nrf2/ARE (ARE-bla HepG2 cells); test: ARE β-lactamase reporter gene assay; assay type: cell-based, human; conditions: 16 h incubation, mean±SD of three experiments
[14] = tested on: Caenorhabditis elegans strain PE255; test: In vivo C. elegans ATP status assay
[15] = tested on: Caenorhabditis elegans (Bristol N2); test: C. elegans larval development and growth assay
[16] = tested on: HepG2 cells; test: Intracellular ATP content (cell viability) assay; assay type: cell-based, human; conditions: Homo sapiens
[17] = tested on: mitochondrial respiratory chain complex V; assay type: biochemical, rat
[18] = tested on: Caenorhabditis elegans (Bristol N2); conditions: Bristol N2 (wild type), Caenorhabditis elegans, in vivo
[19] = tested on: rat primary hepatocytes
[20] = 1 h, read-out: Rat hepatocytes IC50 (MMP)
[21] = read-out: MMP assays IC50 (µM) Rat Hepatocytes
[22] = HepG2, 1 h, read-out: HepG2 IC50 Galactose (MMP)
[23] = HepG2, 1 h, read-out: HepG2 IC50 Glucose (MMP)

## COc1cc2c(cc1OC)-c1cc3ccc(OC)c(OC)c3c[n+]1CC2 [Palmatine chloride hydrate]
[1]; 1 h treatment, fresh re-sourced stocks, mean±SD of three experiments
  IC50: 34.1 ± 11.2 µM
[2]
  Complex IV % inhibition (activity call): Inactive
[3]
  MMP assays efficacy (%) qHTS-HepG2: -99±8%
[3]; read-out: MMP assays IC50 (µM), qHTS-HepG2
  IC50: 22.7 ± 5.23 µM
[4]; at 100μM
  Complex I % inhibition: 12.3±3.05 at 100μM %
[5]; HeLa cells stably expressing YFP-Parkin, treated for 2 h
  Parkin recruitment: Inactive
[6]
  Complex II % inhibition (activity call): Inactive
[7]
  p53 (HCT-116) EC50: Inactive
[8]; 2 h treatment, mean±SD of three experiments
  ROS (HepG2) EC50: Inactive
[9]; % of positive control, mean±SD of three experiments
  Rat hepatocytes (efficacy) (MMP): −101±2.09%
[9]; [20]
  IC50: 6.74 ± 2.89 µM
[9]; [21]
  IC50: 1.37 ± 0.7 µM
[9]; rat hepatocytes, mean ± SD of three experiments
  MMP assays efficacy (%) Rat Hepatocytes: -72±21%
[10]
  Complex III % inhibition (activity call): Inactive
[11]; 0.8 µM, glutamate/malate driven state 3 respiration, isolated rat liver mitochondria
  I-ADP, % of control (O2 consumption rate): 91 (32.3) % of control
[11]; 0.8 µM, glutamate/malate driven state 4 respiration, isolated rat liver mitochondria
  I-sub, % of control (O2 consumption rate): 114 (10.9) % of control
[11]; 0.8 µM, succinate-driven state 3 respiration, isolated rat liver mitochondria
  II-ADP, % of control (O2 consumption rate): 96 (51.6) % of control
[11]; 0.8 µM, succinate-driven state 4 respiration, isolated rat liver mitochondria
  II-sub, % of control (O2 consumption rate): 119 (19.5) % of control
[11]; 4 µM, glutamate/malate driven state 3 respiration, isolated rat liver mitochondria
  I-ADP, % of control (O2 consumption rate): 76 (27.3) % of control
[11]; 4 µM, glutamate/malate driven state 4 respiration, isolated rat liver mitochondria
  I-sub, % of control (O2 consumption rate): 105 (10.1) % of control
[11]; 4 µM, succinate-driven state 3 respiration, isolated rat liver mitochondria
  II-ADP, % of control (O2 consumption rate): 89 (47.6) % of control
[11]; 4 µM, succinate-driven state 4 respiration, isolated rat liver mitochondria
  II-sub, % of control (O2 consumption rate): 103 (16.9) % of control
[11]; 20 µM, glutamate/malate driven state 3 respiration, isolated rat liver mitochondria
  I-ADP, % of control (O2 consumption rate): 70 (25.0) % of control
[11]; 20 µM, glutamate/malate driven state 4 respiration, isolated rat liver mitochondria
  I-sub, % of control (O2 consumption rate): 114 (10.9) % of control
[11]; 20 µM, succinate-driven state 3 respiration, isolated rat liver mitochondria
  II-ADP, % of control (O2 consumption rate): 85 (45.5) % of control
[11]; 20 µM, succinate-driven state 4 respiration, isolated rat liver mitochondria
  II-sub, % of control (O2 consumption rate): 116 (19.1) % of control
[11]; 100 µM, glutamate/malate driven state 3 respiration, isolated rat liver mitochondria
  I-ADP, % of control (O2 consumption rate): 77 (35.3) % of control
[11]; 100 µM, glutamate/malate driven state 4 respiration, isolated rat liver mitochondria
  I-sub, % of control (O2 consumption rate): 172 (26.6) % of control
[11]; 100 µM, succinate-driven state 3 respiration, isolated rat liver mitochondria
  II-ADP, % of control (O2 consumption rate): 56 (40.4) % of control
[11]; 100 µM, succinate-driven state 4 respiration, isolated rat liver mitochondria
  II-sub, % of control (O2 consumption rate): 114 (35.8) % of control
[11]; mitochondrial respiration in isolated rat liver mitochondria, Clark type oxygen electrode, over tested concentrations
  Potential Mechanism: Uncoupler + Inhibitor
[12]; [22]
  IC50: 70.6 ± 4.79 µM
[12]; [23]
  IC50: 55.7 ± 17.9 µM
[12]; HepG2, read-out: MMP assays IC50 (µM) HepG2
  IC50: 12.6 µM
[12]
  Emax: 86%
[13]
  ARE (HepG2) EC50: Inactive
[14]; 0.5 µM
  LUM: mean difference in luminescence (ATP content) relative to plate controls: 1.192
[14]; 1 µM
  LUM: mean difference in luminescence (ATP content) relative to plate controls: -0.05262
[14]; 5 µM
  LUM: mean difference in luminescence (ATP content) relative to plate controls: 0.04332
[14]; 10 µM
  LUM: mean difference in luminescence (ATP content) relative to plate controls: -0.02063
[14]; 25 µM
  LUM: mean difference in luminescence (ATP content) relative to plate controls: -0.0762
[14]; 50 µM
  LUM: mean difference in luminescence (ATP content) relative to plate controls: 0.2026
[14]; 75 µM
  LUM: mean difference in luminescence (ATP content) relative to plate controls: 0.01325
[14]; 100 µM
  LUM: mean difference in luminescence (ATP content) relative to plate controls: 0.2556
[15]; 0.5 µM
  EXT: mean difference in nematode size relative to plate controls: -0.01207
[15]; 1 µM
  EXT: mean difference in nematode size relative to plate controls: -0.07266
[15]; 5 µM
  EXT: mean difference in nematode size relative to plate controls: -0.05419
[15]; 10 µM
  EXT: mean difference in nematode size relative to plate controls: -0.03134
[15]; 25 µM
  EXT: mean difference in nematode size relative to plate controls: 0.08842
[15]; 50 µM
  EXT: mean difference in nematode size relative to plate controls: 0.1943
[16]; HepG2, 5 mM glucose, 40 h treatment, mean±SD of three experiments, read-out: ATP (HepG2, glucose) IC50
  IC50: 19 ± 9.49 µM
[16]; HepG2, 10 mM galactose, 40 h treatment, mean±SD of three experiments, read-out: ATP (HepG2, galactose) IC50
  IC50: 27.1 ± 8.93 µM
[17]
  Complex V % inhibition (activity call): Inactive

## C=C(c1ccc(C(=O)O)cc1)c1cc2c(cc1C)C(C)(C)CCC2(C)C [Bexarotene, reference compound]
[1]; 1 h
  IC50: 22.3 µM
[2]
  Complex IV % inhibition (activity call): Inactive
[3]
  MMP assays efficacy (%) qHTS-HepG2: -124±6%
[3]; read-out: MMP assays IC50 (µM) qHTS-HepG2
  IC50: 16.5 ± 3.95 µM
[4]
  Complex I % inhibition (activity call): Inactive
[5]
  Parkin recruitment: Inactive
[18]
  LEC (lowest effect concentration), larval growth assay: ≤ 10 µM
[6]
  Complex II % inhibition (activity call): Inactive
[19]
  MMP assays efficacy (%) Rat Hepatocytes: -112±7%
  Rat hepatocytes (efficacy) (MMP): 39.9±5.09 ( −93.8±8.55 ) %
[8]
  ROS (HepG2) EC50: Inactive
[9]; [20]
  IC50: 39.9 µM
[9]; [21]
  IC50: 9.08 ± 1.16 µM
[10]
  Complex III % inhibition (activity call): Inactive
[11]
  Potential Mechanism: Uncoupler + inhibitor
[11]; 0.8 µM
  I-ADP, % of control (O2 consumption rate): 92 (45.5) % of control
  I-sub, % of control (O2 consumption rate): 108 (17.4) % of control
  II-ADP, % of control (O2 consumption rate): 84 (65.0) % of control
  II-sub, % of control (O2 consumption rate): 93 (28.5) % of control
[11]; 4 µM
  I-ADP, % of control (O2 consumption rate): 86 (42.6) % of control
  II-ADP, % of control (O2 consumption rate): 81 (62.5) % of control
  II-sub, % of control (O2 consumption rate): 97 (29.8) % of control
[11]; 20 µM
  I-ADP, % of control (O2 consumption rate): 61 (29.8) % of control
  I-sub, % of control (O2 consumption rate): 155 (25.0) % of control
  II-ADP, % of control (O2 consumption rate): 39 (30.1) % of control
  II-sub, % of control (O2 consumption rate): 107 (32.7) % of control
[11]; 100 µM
  I-ADP, % of control (O2 consumption rate): 5 (2.8) % of control
  I-sub, % of control (O2 consumption rate): 36 (4.9) % of control
  II-ADP, % of control (O2 consumption rate): 6 (3.8) % of control
  II-sub, % of control (O2 consumption rate): 24 (5.1) % of control
[12]; [22]
  IC50: 50.2 µM
[12]; [23]
  IC50: 50 µM
[12]
  Emax: 106%
[13]; Homo sapiens, HepG2, read-out: ARE (HepG2) EC50
  EC50: 11.5 ± 0.75 µM
[15]; Caenorhabditis elegans, read-out: LEC EXT: lowest effect concentration for extinction, a measure of nematode size
  minimal effective concentration: 10 µM
[16]; HepG2, 40 h, read-out: ATP (HepG2, galactose) IC50
  IC50: 63.2 µM
[16]; HepG2, 40 h, read-out: ATP (HepG2, glucose) IC50
  IC50: 63.2 µM
[17]
  Complex V % inhibition (activity call): Inactive
